The target of one test is T1, human Nav1.7 channels (Homo sapiens, UniProt Q15858).
T1 construct: expressed in transfected cells
Nature of the test: Whole-cell patch clamp, use-dependent block of sodium current, drug applied intracellularly or externally. The test is classed as cell-based. Here is the method: Whole-cell recordings were made of currents carried by voltage-activated channels in HEK293 cells stably expressing human Nav1.7 channels. Recordings were made using patch pipettes with resistances of 2-3.5 MQ when filled with internal solution, consisting of 61 mM CsF, 61 mM CsCl, 9 mM NaCl, 1.8 mM MgCl2, 9 mM EGTA, 14 mM creatine phosphate (tris salt), 4 mM MgATP, and 0.3 mM GTP (tris salt), 9 mM HEPES, pH adjusted to 7.2 with CsOH. The shank of the electrode was wrapped with Parafilm in order to reduce capacitance and allow optimal series resistance compensation without oscillation. Seals were obtained and the whole-cell configuration established with cells in Tyrode's solution (155 mM NaCl, 3.5 mM KCl, 1.5 mM CaCl2), 1 mM MgCl2, 10 mM HEPES, 10 mM glucose, pH adjusted to 7.4 with NaOH) with 10 mM TEACl. To ensure complete dialysis with pipette solution, recordings began after 5 to 10 min after establishment of the whole-cell configuration.
Currents were recorded at room temperature (21-23° C.) with an Axopatch 200 amplifier and filtered at 5 kHz with a low-pass Bessel filter. The amplifier was tuned for partial compensation of series resistance (typically 70-80% of a total series resistance of 4-10 MO). Currents were digitized using a Digidata 1322A data acquisition interface controlled by pClamp9.2 software (Axon Instruments) and analyzed using programs written in Igor Pro 4.0 (Wavemetrics, Lake Oswego, Oreg.). Currents were corrected for linear capacitative and leak currents determined using 5 mV hyperpolarizations delivered from the resting potential (usually −80 or −100 mV) and then appropriately scaled and subtracted.
Sodium currents were evoked by 30-msec depolarizations from −100 mV to −20 mV. To assay use-dependent block, pulses were delivered at series of increasing rates: 0.05 Hz for 1-min, 0.33 Hz for 1-min, 1 Hz for 1-min, 3 Hz for 1-min, 5 Hz for 30 seconds, 10 Hz for 30 seconds, with 1 minute rest between each series of pulses. After the series of pulses to induce use-dependent block, the time course of recovery was followed using pulses delivered at 01. Hz (2-min) and 0.05 Hz (1-min).
To induce use-dependent block, the depolarizations were delivered by series of increasing rates: 0.05 Hz for 1-min, 0.33 Hz for 1-min, 1 Hz for 1-min, 3 Hz for 1-min, 5 Hz for 30 seconds, 10 Hz for 30 seconds, with 1 minute rest between each series of pulses. After the series of pulses to induce use-dependent block, the time course of recovery was followed using pulses delivered at 01. Hz (2-min) and 0.05 Hz (1-min). Peak sodium current was plotted as a function of experimental time (1-min per division on the time axis).
For orientation: In patch-clamp work, channel activity is measured electrically.

For test [1], the system named is allergic airway inflammation induced by Ovalbumin. Kind of test: Ovalbumin allergic airway inflammation, BALF immune cell counts. The test is classed as in vivo. The settings on record: OVA-exposed mice, aerosolized 100 μM on day 18, read day 21. Here is the method:
FIG. 5A-5E are results showing that lung sensory neuron silencing with N-ethyl-etidocaine (Compound 21) reduces allergic airway inflammation. OVA-exposed mice (day 21) develop increases in BALF total (FIG. 5A), and CD45+ cells (FIG. 5B), including eosinophil (FIG. 5C), macrophage (FIG. 5D) and T-cell (FIG. 5E) counts. In comparison to vehicle treatment, the silencing of sensory neurons using aerosolized QX-314 (100 μM, hollow square) or N-ethyl-etidocaine (Compound 21) (100 μM, dark square) decreased these levels. […] Data expressed as mean S.E.M; Two-tailed unpaired Student's t-test (n=8-16 animals/group; 1-2 cohorts). […]
Allergic airway inflammation was studied in an ovalbumin (OVA) based model. […] Drugs were nebulized on day 18 (10:00 am) and inflammation (BALF cell content)/airway hyper-responsiveness were assessed on day 21 (10:00 am). […]
Bronchoalveolar lavage fluid (BALF) cells were re-suspended in FACS buffer (PBS, 2% FCS, EDTA), and incubated with Fc block (0.5 mg/ml, 10 min; BD Biosciences). […] A leukocyte differential count was determined during flow cytometry analysis of cells expressing the common leukocyte antigen CD45 (BD Pharmigen; cat no: 553079). […] Total BAL cell counts were performed using a standard hemocytometer, with absolute cell numbers calculated as total BAL cell number multiplied by the percentage of cell subpopulation as determined by FACS.

“Also recorded” adds a separate entry of the source.

T1 sequence (Q15858 whole entry): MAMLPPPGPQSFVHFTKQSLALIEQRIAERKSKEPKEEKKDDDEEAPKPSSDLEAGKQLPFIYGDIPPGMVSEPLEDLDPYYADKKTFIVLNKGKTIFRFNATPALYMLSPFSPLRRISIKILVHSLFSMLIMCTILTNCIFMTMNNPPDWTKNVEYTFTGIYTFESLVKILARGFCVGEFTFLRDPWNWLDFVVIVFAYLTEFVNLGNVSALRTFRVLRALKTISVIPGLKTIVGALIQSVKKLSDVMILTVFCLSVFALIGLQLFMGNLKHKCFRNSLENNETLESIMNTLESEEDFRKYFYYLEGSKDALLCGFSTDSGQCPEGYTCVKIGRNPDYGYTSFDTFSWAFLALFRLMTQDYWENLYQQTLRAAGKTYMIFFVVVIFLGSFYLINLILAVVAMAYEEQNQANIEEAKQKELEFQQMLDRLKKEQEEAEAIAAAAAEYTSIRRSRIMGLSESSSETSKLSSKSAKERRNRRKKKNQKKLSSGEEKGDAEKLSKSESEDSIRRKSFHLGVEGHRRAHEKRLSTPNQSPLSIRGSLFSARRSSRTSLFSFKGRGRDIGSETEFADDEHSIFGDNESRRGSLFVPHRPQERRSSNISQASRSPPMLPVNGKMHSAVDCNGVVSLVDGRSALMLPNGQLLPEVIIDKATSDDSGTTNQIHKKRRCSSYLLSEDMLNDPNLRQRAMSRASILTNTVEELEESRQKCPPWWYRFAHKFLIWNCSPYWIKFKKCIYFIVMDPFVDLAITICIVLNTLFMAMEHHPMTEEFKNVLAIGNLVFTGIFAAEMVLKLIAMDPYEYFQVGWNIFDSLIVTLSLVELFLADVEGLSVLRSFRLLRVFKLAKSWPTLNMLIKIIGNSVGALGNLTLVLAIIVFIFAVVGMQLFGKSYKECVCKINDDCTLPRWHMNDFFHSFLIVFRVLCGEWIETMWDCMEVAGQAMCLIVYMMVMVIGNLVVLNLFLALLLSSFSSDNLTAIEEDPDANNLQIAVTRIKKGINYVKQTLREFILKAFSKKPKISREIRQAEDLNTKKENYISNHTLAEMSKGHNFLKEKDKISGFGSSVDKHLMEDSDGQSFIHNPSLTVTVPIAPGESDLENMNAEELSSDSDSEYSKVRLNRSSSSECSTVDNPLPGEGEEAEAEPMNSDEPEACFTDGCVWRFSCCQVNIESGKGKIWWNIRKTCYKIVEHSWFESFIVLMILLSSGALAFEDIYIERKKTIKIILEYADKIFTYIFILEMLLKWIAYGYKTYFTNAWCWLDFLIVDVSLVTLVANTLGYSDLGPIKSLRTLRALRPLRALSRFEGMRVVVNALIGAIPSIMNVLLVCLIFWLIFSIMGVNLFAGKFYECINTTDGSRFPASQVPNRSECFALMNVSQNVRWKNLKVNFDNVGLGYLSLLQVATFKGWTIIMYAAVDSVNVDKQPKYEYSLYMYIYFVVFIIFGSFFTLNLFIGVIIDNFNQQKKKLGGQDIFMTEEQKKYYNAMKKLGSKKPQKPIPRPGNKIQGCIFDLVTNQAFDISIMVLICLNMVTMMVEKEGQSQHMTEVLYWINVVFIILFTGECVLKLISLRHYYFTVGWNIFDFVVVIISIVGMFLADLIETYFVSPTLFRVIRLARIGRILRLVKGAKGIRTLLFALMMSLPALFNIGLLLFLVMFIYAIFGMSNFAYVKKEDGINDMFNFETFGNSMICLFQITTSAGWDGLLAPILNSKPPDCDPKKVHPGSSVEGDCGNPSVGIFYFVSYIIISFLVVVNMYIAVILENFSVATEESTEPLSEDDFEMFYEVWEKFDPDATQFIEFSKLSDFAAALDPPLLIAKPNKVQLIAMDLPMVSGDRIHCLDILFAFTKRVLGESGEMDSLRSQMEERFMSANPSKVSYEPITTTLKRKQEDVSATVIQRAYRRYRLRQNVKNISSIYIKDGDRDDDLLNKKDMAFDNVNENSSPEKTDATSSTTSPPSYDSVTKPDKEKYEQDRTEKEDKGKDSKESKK

As to `CC[N+](CC)(CC)CC(=O)Nc1c(C)cccc1C` [QX-314, reference compound], the “use dependent accumulation of block” value at human Nav1.7 channels (100 micromolar inside cell, stimulation frequencies from 1 to 10 Hz) was “strong use dependent accumulation of block”. In test [1], the “BALF immune cell levels (total, CD45+, eosinophil, macrophage, T-cell)” value is given as “decreased”.
In the case of `CCC[N+](CC)(CC)C(CC)C(=O)Nc1c(C)cccc1C` (stereo not shown) [Compound 21, N-ethyl etidocaine], the inhibition (in general, the drop in the measured response relative to a control, in per cent) at 100 µM at human Nav1.7 channels was determined as 97%. The “BALF immune cell levels (total, CD45+, eosinophil, macrophage, T-cell)” value in test [1] was “blocked; also recorded: potently reversed; also recorded: decreased; also recorded: tendency toward a greater decrease in comparison to QX-314”.

The values above are taken from patent US20200377459A1, “CHARGED ION CHANNEL BLOCKERS AND METHODS FOR USE” (President and Fellows of Harvard College, priority 2015, published 2020).
